Reference: the supplement of paper PMC10307832

Assays:
Test in all cases: relative viability (nuclei count vs DMSO), 5 days (fraction); higher = more cells survive
[1] = compound: C(C(=O)C(=O)O)Br [Bromopyruvate] + CC(C)C[C@H](NC(=O)[C@H](Cc1ccccc1)NC(=O)c1cnccn1)B(O)O [Bortezomib] (partner 0.002 µM)
In short: (§1)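 Each reported value is a median over duplicate plates. It expresses relative viability: treated-well nuclei count divided by vehicle-well nuclei count. Lung cancer cell lines in 1536-well plates were dosed by pin tool a day after seeding, alone with one drug or with a fixed anchor-drug dose plus five library-drug doses (not always all listed) in √10 steps, and nuclei were counted after 5 days.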

[2] = compound: C(C(=O)C(=O)O)Br [Bromopyruvate] + Nc1nc2[nH]cc(CCc3ccc(C(=O)N[C@@H](CCC(=O)O)C(=O)O)cc3)c2c(=O)[nH]1 [Pemetrexed] (partner 0.2 µM)
In short: as §1

[3] = compound: CC(O)(CS(=O)(=O)c1ccc(F)cc1)C(=O)Nc1ccc(C#N)c(C(F)(F)F)c1 [Bicalutamide] + N=C(N)NC(=N)NCCc1ccccc1 [Phenformin] (partner 250 µM)
In short: as §1

[4] = compound: C(C(=O)C(=O)O)Br [Bromopyruvate] + CC1(C)CCC(c2ccc(Cl)cc2)=C(CN2CCN(c3ccc(C(=O)NS(=O)(=O)c4ccc(N[C@H](CCN5CCOCC5)CSc5ccccc5)c(S(=O)(=O)C(F)(F)F)c4)cc3)CC2)C1 [Navitoclax] (partner 0.5 µM)
In short: as §1

Cell Line | relative viability ([1]; first compound 1 µM) | relative viability ([1]; first compound 3.162 µM) | relative viability ([1]; first compound 10 µM) | relative viability ([1]; first compound 31.62 µM) | relative viability ([1]; first compound 100 µM) | relative viability ([2]; first compound 1 µM) | relative viability ([2]; first compound 3.162 µM) | relative viability ([2]; first compound 10 µM) | relative viability ([2]; first compound 31.62 µM) | relative viability ([2]; first compound 100 µM) | relative viability ([3]; first compound 0.08 µM) | relative viability ([3]; first compound 0.253 µM) | relative viability ([3]; first compound 0.8 µM) | relative viability ([3]; first compound 2.53 µM) | relative viability ([4]; first compound 1 µM) | relative viability ([4]; first compound 3.162 µM) | relative viability ([4]; first compound 10 µM) | relative viability ([4]; first compound 31.62 µM) | relative viability ([4]; first compound 100 µM)
NCI-H1755 | 0.967 | 0.938 | 0.994 | 1.01 | 1.03 | 0.44 | 0.441 | 0.371 | 0.475 | 0.52 | 0.651 | 0.595 | 0.596 | 0.551 | 1.06 | 1.02 | 0.977 | 1.03 | 1.03
NCI-H1792 | 1.01 | 0.932 | 1.11 | 0.879 | 0.915 | 0.904 | 0.997 | 0.699 | 0.894 | 0.983 | 0.275 | – | 0.444 | 0.344 | 0.716 | 0.719 | 0.787 | 0.486 | 0.542
NCI-H1915 | 1 | 1.02 | 1.01 | 0.929 | 0.975 | 0.496 | 0.41 | 0.497 | 0.511 | 0.481 | 0.375 | 0.313 | 0.368 | 0.362 | 0.827 | 0.765 | 0.792 | 0.824 | 0.801
NCI-H1975 | 0.423 | 0.431 | 0.475 | 0.405 | 0.5 | 0.276 | 0.3 | 0.292 | 0.326 | 0.292 | 0.4 | 0.409 | 0.442 | 0.37 | 1.18 | 1.26 | 1.08 | 1.31 | 0.994
NCI-H1993 | 1.34 | 0.954 | 1.21 | 1.08 | 1.15 | 0.629 | 0.649 | 0.633 | 0.605 | 0.582 | 0.437 | 0.51 | 0.434 | 0.447 | 1.02 | 0.96 | 0.925 | 1.09 | 0.901
NCI-H2009 | 1.02 | 1.02 | 0.918 | 0.897 | 0.768 | 1.01 | 1.04 | 0.936 | 0.868 | 1.11 | 0.504 | 0.491 | 0.469 | 0.423 | 1.15 | 1.26 | 1.22 | 1.06 | 0.899
NCI-H2023 | 0.95 | 1.09 | 0.969 | 0.914 | 1.06 | 0.231 | 0.246 | 0.273 | 0.205 | 0.187 | 0.447 | 0.315 | 0.456 | 0.454 | 0.97 | 1.06 | 1.06 | 1.09 | 1.06
NCI-H2085 | 1.07 | 1.18 | 1.15 | 1 | 0.792 | 0.974 | 0.954 | 0.992 | 0.937 | 0.963 | 0.742 | 0.686 | 0.781 | 0.608 | 1.08 | 1.19 | 1.25 | 1.07 | 1.05
NCI-H2087 | 0.878 | 0.772 | 0.772 | 0.793 | 0.9 | 0.658 | 0.745 | 0.651 | 0.72 | 0.567 | 0.539 | 0.449 | 0.642 | 0.435 | 0.974 | 1.08 | 0.987 | 0.966 | 1.02
NCI-H2126 | 1.1 | 1.05 | 1.12 | 1.14 | 1.15 | 0.702 | 0.636 | 0.66 | 0.677 | 0.695 | 0.519 | 0.528 | 0.55 | 0.49 | 0.827 | 0.9 | 0.906 | 0.856 | 0.873
NCI-H2228 | 0.857 | 1.15 | 1.36 | 0.817 | 0.946 | 0.343 | 0.339 | 0.337 | 0.357 | 0.341 | 0.356 | 0.371 | 0.58 | 0.291 | 0.936 | 0.698 | 0.864 | 0.469 | 0.63
NCI-H2347 | 0.862 | 1.19 | 0.893 | 0.723 | 1.08 | 0.42 | 0.471 | 0.486 | 0.44 | 0.43 | 0.368 | 0.462 | 0.421 | 0.268 | 0.714 | 0.742 | 1.13 | 0.553 | 0.778
NCI-H2405 | 1.02 | 0.992 | 1.19 | 0.954 | 1.04 | 1.14 | 1.06 | 1.24 | – | 0.728 | 0.436 | 0.358 | 0.468 | 0.415 | 0.903 | 0.94 | 0.971 | 0.774 | 1.15
NCI-H3122 | 1.02 | 1.01 | 1.07 | 0.971 | 1.02 | 0.209 | 0.193 | 0.186 | 0.183 | 0.192 | 0.46 | 0.416 | 0.378 | 0.369 | 1.03 | 0.974 | 1.08 | 1.01 | 1.03
PC-3 [JPC-3] | 0.796 | 0.74 | 0.832 | 0.785 | 0.856 | 1.3 | – | 0.783 | – | 1.11 | 0.46 | 0.472 | 0.505 | 0.505 | 0.751 | 0.811 | 0.838 | 0.727 | 0.828
PC-14 | 0.958 | 0.873 | 0.883 | 1 | 0.912 | 0.141 | 0.143 | 0.14 | 0.154 | 0.123 | 0.701 | 0.541 | 0.96 | 0.527 | 1.02 | 1.02 | 1.07 | 1.02 | 1.01
RERF-LC-KJ | 1.09 | 1.14 | 1 | 1.18 | 1.29 | 0.49 | 0.507 | 0.457 | 0.49 | 0.468 | 0.406 | 0.396 | 0.431 | 0.336 | 1.05 | 0.822 | 1.05 | 0.868 | 0.98
